Experimental findings from patent US6949250B2, “Selective algaecides for control of cyanochloronta” (The United States of America as represented by the …, priority 2002, dated 2005) are described below.

Series [1] deals with Oscillatoria perornata. The experiment in a line: Rapid bioassay screening for selective algicides (LOEC, LCIC). Type of series: cell-based. To be noted: rapid screening; for MIC: read-out: LCIC (lowest-complete-inhibition concentration), Oscillatoria perornata; for minimal effective concentration: read-out: LOEC (lowest-observed-effect concentration), Oscillatoria perornata.
Series [2] has as its system Selenastrum capricornutum. The series is described as above. Type of series: cell-based. As to conditions: rapid screening.
The test system of series [3] is Oscillatoria perornata. The experiment in a line: 96-hour IC50 determination. Type of series: cell-based. As to conditions: for IC50: 96-hour 50% inhibition concentration; for selective toxicity towards O. perornata compared to S. capricornutum (result in words): based on laboratory screening and IC50 results. As to the method: (§1) The green alga Selenastrum capricornutum (obtained from the United States Environmental Protection Agency, Corvallis, Oreg.) was used as the representative green algal species in the bioassay since it is a common species found in southeastern United States catfish ponds. […] In addition, a 96-hour 50% inhibition concentration (IC50) was determined for DNA1-19-1 and DNA2-59-1 by using the method described by Schrader et al. (1998b). Stock solutions of DNA1-19-1 and DNA2-59-1 were prepared so that final concentrations screened for 96-hour IC50 determinations were as follows: 1) 0, 0.01, 0.033, 0.1, 0.333, 1.0, 3.3, and 10.0 μM DNA1-19-1 for both O. perornata and S. capricornutum; 2) 0, 0.003, 0.01, 0.033, 0.1, 0.333, 1.0, and 3.333 μM DNA2-59-1 for O. perornata; and 3) 0, 0.1, 0.333, 1.0, 3.333, 10.0, 33.333, and 100.0 μM DNA2-59-1 for S. capricornutum. Estimation of the IC50 was determined by plotting 96-hour absorbance readings against logarithmic dilution values of the anthraquinone analogs.
(§2) The green alga Selenastrum capricornutum (obtained from the United States Environmental Protection Agency, Corvallis, Oreg.) was used as the representative green algal species in the bioassay since it is a common species found in southeastern United States catfish ponds. […] Stock solutions of DNA1-19-1 and DNA2-59-1 were prepared so that final concentrations screened for 96-hour IC50 determinations were as follows: 1) 0, 0.01, 0.033, 0.1, 0.333, 1.0, 3.3, and 10.0 μM DNA1-19-1 for both O. perornata and S. capricornutum; 2) 0, 0.003, 0.01, 0.033, 0.1, 0.333, 1.0, and 3.333 μM DNA2-59-1 for O. perornata; and 3) 0, 0.1, 0.333, 1.0, 3.333, 10.0, 33.333, and 100.0 μM DNA2-59-1 for S. capricornutum. Estimation of the IC50 was determined by plotting 96-hour absorbance readings against logarithmic dilution values of the anthraquinone analogs.

For series [4], the system named is Selenastrum capricornutum. The experiment in a line: 96-hour IC50 determination. Type of series: cell-based. To be noted: 96-hour 50% inhibition concentration, read-out: IC50, Selanastrum capricornutum. As to the method:
as §1, §2

The next series is described as follows: Solubility in water. In kind it is physicochemical.

Where two headings read alike, the source gives them in different places.

A word on the IC50: it is the concentration at which inhibition is half-maximal. As to `CC(C)NCc1ccc2c(c1)C(=O)c1ccccc1C2=O` [DNA2-59-1, 2-[methylamino-N-(1′-methylethyl)]-9,10-anthraquinone monophosphate], the MIC in the series on Oscillatoria perornata [1] (Planktothrix perornata) was determined as 0.1 µM; in series [2] (Selenastrum capricornutum, read-out: LCIC (lowest-complete-inhibition concentration), Selenastrum capricornutum) it was 100 µM. In addition, the minimal effective concentration was 0.01 µM in the series with Oscillatoria perornata [1] (Planktothrix perornata) and 10 µM in series [2] (Selenastrum capricornutum, read-out: LOEC (lowest-observed-effect concentration), Selenastrum capricornutum). For the same molecule, the IC50 amounted to 6.3 nM in the series with Oscillatoria perornata [3] (Planktothrix perornata) and 5620 nM in series [4] (Selenastrum capricornutum). For the same molecule, the “selective toxicity towards O. perornata compared to S. capricornutum (result in words)” value in the series on Oscillatoria perornata [3] is recorded as “very selectively toxic”. Also, the “solubility in water” value in the series “Solubility in water” is recorded as “soluble in water”.
For `CCN(CC)CCCC(C)NCc1ccc2c(c1)C(=O)c1ccccc1C2=O.O=P(O)(O)O.O=P(O)(O)O` (stereo not shown) [DNA1-19-1, 2-[methylamino-N-(1′-methyl-4′-N,N-diethylaminobutyl)]-9,10-anthraquinone diphosphate], in the series with Oscillatoria perornata [1], the MIC is 0.1 µM and the minimal effective concentration was 0.01 µM. In addition, in series [2], the “LCIC (lowest-complete-inhibition concentration), Selenastrum capricornutum” value was 10,000 nM and the “LOEC (lowest-observed-effect concentration), Selenastrum capricornutum” value is given as 10,000 nM. In the series with Oscillatoria perornata [3], the half-maximal inhibitory concentration (IC50) is 63 nM and the “selective toxicity towards O. perornata compared to S. capricornutum (result in words)” value is given as “very selectively toxic”. In addition, the IC50 in series [4] was determined as 5010 nM. For the same molecule, the “solubility in water” value in the series “Solubility in water” was “soluble in water”.
